Data: patent US5116815A, “PF 1022 substance, method of treating helminthic parasitic infection and anthelmintic composition” (Meiji Seika Kaisha Ltd., priority 1989, dated 1992)
Several values for one entry are separate records, joined by “and”; a condition that tells them apart may be missing. Equal values may be shown once.

Legend:
[1] = test system: digestive tract nematodes (Haemonchus controtus, Ostertaqia ostertagi, hairworms, cooperids, etc.); experiment: Anthelmintic effect on bovine digestive tract nematodes (EPG); type: in vivo; conditions: cattle
Experimental: The PF 1022 substance was evaluated for its anthelmintic effect on the so-called digestive tract nematodes parasitizing cattle by orally administering it to three head of cattle found to be infected with such nematodes (Haemonchus controtus, Ostertaqia ostertagi, hairworms, cooperids, etc.) by scatoscopy.
The PF 1022 substance was administered either once at 5 mg/kg or for 2 days once daily at 12.5 mg/kg, in the form of a suspension in water, using a stomach catheter. Parasite eggs in feces (EPG) were counted daily for 3 days before administration and for 7 days following administration.

[2] = test system: roundworms (Toxocara canis); experiment: Anthelmintic effect on canine roundworms; type: in vivo; conditions: dog, single oral dose 5 mg/kg
Experimental: The PF 1022 substance was evaluated for its anthelmintic effect in dogs by orally administering it to dogs found to be infected with roundworms (Toxocara canis), hookworms (Ancylostoma caninum) and whipworms (Trichuris vulpisl), respectively, by scatoscopy.
The substance was orally administered once at the dose of 5 mg/kg to a dog infected with the roundworms or hookworms by admixing the substance with a small portion of the ordinary feed, and the worms eliminated and those remaining in the dog during 7 days following administration were counted.

Ames test = type: cell-based
[3] = test system: bovine twisted stomach worms (Haemonchus contortus); experiment: In vitro test tube motility test on bovine twisted stomach worms; conditions: physiological salt solution, 39-40 C
Experimental: The PF 1022 substance was evaluated for its anthelmintic activity by adding it to test tubes in which bovine twisted stomach worms (Haemonchus contortus) isolated from the bovine fourth stomach were swimming.
A physiological salt solution was distributed into 4 test tubes and warmed to 39°-40° C. Three to five twisted stomachworms collected from the bovine fourth stomach were put into the medium in each test tube and allowed to swim therein. An appropriate amount of the PF 1022 substance was dissolved in a small amount of dimethyl sulfoxide and the solution was added dropwise to the medium and, after stirring for admixing, the behavior of each worm was observed. The amount of the PF 1022 substance was adjusted so that the final concentrations in the culture medium in three tubes amounted to 2 ppm, 8 ppm and 40 ppm, respectively. Dimethyl sulfoxide alone was added dropwise to the remaining test tube, which served as a control.

[4] = test system: fourth stomachworms (Ostertaqia circumcincta); experiment: Sheep digestive tract nematodes, worms remaining in the fourth stomach; type: in vivo; conditions: for number of worms remaining in the fourth stomach at autopsy: autopsy 7 days after administration, mean of 6 animals
Experimental: The PF 1022 substance was evaluated for its anthelmintic effect in sheep mixedly infected with fourth stomachworms (Ostertaqia circumcincta) and small intestinal hairworms (Trichostrongylus colubriformis) by administering it orally to 24 sheep artificially infected with said two worm species.
The infected sheep were divided into 4 groups of 6 animals, which were respectively given 1 mg/kg, 5 mg/kg, 10 mg/kg and 0 mg/kg (control) of the substance suspended in 0.5% CMC, via a stomach catheter. The observation items were the number of parasite eggs per gram of feces (EPG) before administration, the EPG 7 days after administration, and the number of worms remaining in the fourth stomach and that of worms remaining in the intestinal tract as found upon autopsy 7 days after administration.
Each numerical value given is the mean of 6 animals.

[5] = test system: feline roundworms (Toxocara cati); experiment: Anthelmintic activity against cat large intestinal roundworms; type: in vivo; conditions: cats
Experimental: The PF 1022 substance was evaluated for its anthelmintic effect on feline roundworms (Toxocara cati) by orally administering the substance once to 12 cats found to be infected with the roundworms by scatoscopy.
The infected cats were used in three groups of 4 animals and given 0.2 mg/kg, 1 mg/kg and 5 mg/kg of the substance, respectively, admixed as such with a small portion of ordinary feed. The observation items were the number of roundworms eliminated during the 7 day observation period following administration and the number of remaining roundworms as found upon autopsy performed 7 days after administration.

[6] = test system: large intestinal roundworms (Ascaris suum); experiment: Anthelmintic activity against swine large intestinal roundworms; type: in vivo; conditions: oral in feed; for Number of remaining worms: autopsy one week; for EPG Before administration: baseline; for EPG Upon autopsy: one week
Experimental: The anthelmintic effect of the PF 1022 substance in swine was evaluated by orally administering the substance to swine found to be infected with large intestinal roundworms (Ascaris suum) by scatoscopy.
The PF 1022 substance was administered either once at 5 mg/kg or 10 mg/kg, or at a daily dose of 1.25 mg/kg, 2.5 mg/kg or 5 mg/kg once daily for consecutive 2 days by admixing an amount of the substance as such equal to each dose with a small portion of the ordinary feed. After administration, the worms eliminated were counted and the feces examined for the number of roundworm eggs per gram of feces (EPG) daily. One week after commencement of administration, the animals were sacrificed and autopsied for counting the worms remaining in the intestinal tract.

[7] = 2 administrations, 1.25 mg/kg/administration, 1.25 mg/kg
[8] = 2 administrations, 2.5 mg/kg/administration
[9] = 2 administrations, 5 mg/kg/administration

CC(C)C[C@H]1C(=O)O[C@H](Cc2ccccc2)C(=O)N(C)[C@@H](CC(C)C)C(=O)O[C@H](C)C(=O)N(C)[C@@H](CC(C)C)C(=O)O[C@H](Cc2ccccc2)C(=O)N(C)[C@@H](CC(C)C)C(=O)O[C@H](C)C(=O)N1C [PF 1022 substance]
EPG relative to that found before administration ([1]; 2 day administration at 12.5 mg/kg, day after the second day of administration): about half | EPG ([1]; oral 5.0 mg/kg x 1, Day 0 (day of first administration)): 34 | EPG ([1]; oral 5.0 mg/kg x 1, Day 1): 44 | EPG ([1]; oral 5.0 mg/kg x 1, Day 2): 61 | EPG ([1]; oral 5.0 mg/kg x 1, Day 3): 18 | EPG ([1]; oral 5.0 mg/kg x 1, Day 4): 30 | EPG ([1]; oral 5.0 mg/kg x 1, Day 5): 6 | EPG ([1]; oral 5.0 mg/kg x 1, Day 6): 27 | EPG ([1]; oral 5.0 mg/kg x 1, Day 7): 7 | EPG ([1]; oral 5.0 mg/kg x 1, Day -1 (before administration)): 34 | EPG ([1]; oral 5.0 mg/kg x 1, Day -2 (before administration)): 32 | EPG ([1]; oral 5.0 mg/kg x 1, Day -3 (before administration)): 30 | EPG ([1]; oral 12.5 mg/kg x 2, Day 0 (day of first administration), 12.5 mg/kg): 112 and 64 | EPG ([1]; oral 12.5 mg/kg x 2, Day 2, 12.5 mg/kg): 26 and 30 | EPG ([1]; oral 12.5 mg/kg x 2, Day 3, 12.5 mg/kg): 34 and 41 | EPG ([1]; oral 12.5 mg/kg x 2, Day 4, 12.5 mg/kg): 41 and 29 | EPG ([1]; oral 12.5 mg/kg x 2, Day 5, 12.5 mg/kg): 41 and 34 | EPG ([1]; oral 12.5 mg/kg x 2, Day 6, 12.5 mg/kg): 42 and 40 | EPG ([1]; oral 12.5 mg/kg x 2, Day 7, 12.5 mg/kg): 49 and 36 | EPG ([1]; oral 12.5 mg/kg x 2, Day -1 (before administration), 12.5 mg/kg): 109 and 67 | EPG ([1]; oral 12.5 mg/kg x 2, Day -2 (before administration), 12.5 mg/kg): 109 and 58 | EPG ([1]; oral 12.5 mg/kg x 2, Day -3 (before administration), 12.5 mg/kg): 91 and 58 | elimination [2]: 100% | roundworms eliminated ([2]; 7 days): six | roundworms remaining ([2]; 7 days): no roundworms were found remaining | Ames test result (Ames test): negative | time until the worms stopped moving ([3]; 2 ppm): 25 min | time until the worms stopped moving ([3]; 8 ppm): 15 min | time until the worms stopped moving ([3]; 40 ppm): 10 min | number of worms remaining in the fourth stomach at autopsy ([4]; oral 1 mg/kg): 4967 | number of worms remaining in the fourth stomach at autopsy ([4]; oral 5 mg/kg): 4717 | number of worms remaining in the fourth stomach relative to the control infected group ([4]; oral 10 mg/kg): about half | number of worms remaining in the fourth stomach at autopsy ([4]; oral 10 mg/kg): 2463 | % Elimination ([5]; single oral dose 0.2 mg/kg, 0.2 mg/kg): 100% and 50.0% | % Elimination ([5]; single oral dose 1 mg/kg, 1 mg/kg): 100% and 80.0% | % Elimination ([5]; single oral dose 5 mg/kg): 100% | Number of remaining worms ([5]; single oral dose 5 mg/kg, autopsy 7 days): 0 | Number of worms eliminated ([6]; 1 administration, 5 mg/kg): 12 | Number of remaining worms ([6]; 1 administration, 5 mg/kg): 13 | EPG Before administration ([6]; 1 administration, 5 mg/kg): 99000 | EPG Upon autopsy ([6]; 1 administration, 5 mg/kg): 8000 | Number of worms eliminated ([6]; 1 administration, 10 mg/kg): 7 | Number of remaining worms ([6]; 1 administration, 10 mg/kg): 5 | EPG Before administration ([6]; 1 administration, 10 mg/kg): 2100 | EPG Upon autopsy ([6]; 1 administration, 10 mg/kg): 200 | Number of worms eliminated ([6]; 2 administrations, 1.25 mg/kg/administration): 2 | % Elimination [6, 7]: 18.2% and 33.3% | EPG Before administration [6, 7]: 2300 and 1800 | Number of remaining worms [6, 8]: 1 | EPG Before administration ([6]; 2 administrations, 2.5 mg/kg/administration, 2.5 mg/kg): 3300 and 3800 | EPG Upon autopsy [6, 8]: 0 | % Elimination [6, 9]: 100% | Number of worms eliminated [6, 9]: 13 | Number of remaining worms [6, 9]: 0 | EPG Before administration [6, 9]: 2700 | EPG Upon autopsy [6, 9]: 0
